# Assay results published in patent publication US20250206704A1, “ENGINEERED IONOPHORES FOR TRANSPORT OF METAL IONS” (The Brigham and Women's Hospital, Inc., priority 2022, published 2025).
# Entries after “also recorded” stand apart in the source; their conditions may differ. Read-outs that look alike come from different tables or passages of the source.
# Legend:
# [1] = UV/Vis titration, stability constant (logK) with ZnCl2; type: physicochemical; details: UV/Vis titration with ZnCl2, TitrationFit
# Text: Applicants validated the design principles by confirming that the silyl group lowered the binding affinity and shielded the hydrophilic pocket. […] [17] […] Applicants confirmed that all compounds bound Zn^II with 1:1 stoichiometry (FIG. 12). […] Applicants superimposed the X-ray structure of the TIPS-containing Zn^II:9 complex with the literature precedented Zn^II:1 and observed significant structural distortion in the Zn^II:9 complex, which could explain the lower logK.
# A solution of ligand was prepared in acetonitrile. The starting concentration was chosen to be around 0.10 mM, based on the absorption maximum of the compound. This solution (2.5 mL) was pipetted into a quartz cuvette with a 1-cm optical path length. The titration was performed by the stepwise addition of a 10-mM ZnC12 solution in acetonitrile. The absorption spectra were measured over the range of 250-800 nm. The calculation of the stability constants was accomplished using TitrationFit.1
# U2OS cells [2] = test: ICP-MS analysis of intracellular Zn(II) in U2OS cells; type: cell-based; details: 10 μM Zn(II) and 5 μM compound, 1 hour
# Protocol: Next, Applicants used inductively coupled plasma mass spectrometry (ICP-MS) to validate the imaging assay and the ionophores activity (FIG. 1F). While the intracellular Zn^II levels where similar between DMSO and chelator 1, Zn^II concentrations inside cells were 3-fold higher when Applicants co-treated ionophores 8 and 9.
# U2OS cells (˜200,000) were plated in a 6-well dish. After a day, the medium was aspirated, and Zn(II) (10 μM) and compounds (5 μM) containing media (2 mL) were added to each appropriate well. Cells were harvested by first washing each well with PBS containing EDTA (100 μM, 2×2.0 mL) and subsequently adding Milli-Q water ([…] to each well and incubating for 2-4 min. A portion of the resulting cell lysate (900 μL) was collected and transferred to an Eppendorf Safe-Lock tube, snap-frozen in N2(l), and then thawed at room temperature (RT) for a total of three freeze-thaw cycles. The insoluble lysate was pelleted (10 min at 10,000 g), and the soluble protein concentration of each sample was determined using the Pierce 660 nm Protein Assay in a 96-well plate (200 μL of reagent, 14 μL of sample, bovine serum albumin standard curve). Samples were then frozen and lyophilized overnight, and the resulting white, flaky solid was taken up in concentrated nitric acid (200 μL, ultrapure for trace metal analysis, BDH Aristar) and heated at 70° C. for 1 h. A portion of each sample (142 μL) was then diluted with water (2 mL) and a terbium internal standard (Agilent 5190-8590; stock at 10,000 parts per billion [ppb] in 10% nitric acid diluted to 100 ppb in Milli-Q water for addition to samples, 2 ppb final concentration), after which the metal content of the samples was assessed by ICP-MS. […] Therefore, 1 ppb was taken to be equal to 1 μg/L, and the molarity of a particular solution was considered equal to the measured concentration of a particular ion in ppb, divided by the molecular weight of the ion, multiplied by 10-6.
# U2OS cells [3] = test: Zinc imaging assay (DA-ZP1 fluorescence) of ionophore activity in U2OS cells; type: cell-based; details: U2OS cells; for ionophore activity (Zn^II transport, DA-ZP1 fluorescence): 10 μM Zn(II) and 10 μM compound, 1 hour, then DA-ZP1; for ionophore activity (DA-ZP1 fluorescence): 10 μM Zn(II) and 5 μM compound; for concentration at which ionophore activity is displayed: DA-ZP1, comparison with known ionophores
# Text: A number of bispicolyl-based Zn^II-chelators were synthesized with increasing size at the ortho-position of phenolic OH by a one-step reductive amination between bispicolyl-amine and commercially available 3-substituted salicylaldehydes. Applicants examined the ionophore activity of bispicolyl analogs with methyl (Me, 2), isopropyl (iPr, 3), and tert-butyl (tBu, 4) substitutions (FIG. 1A). […] [13] The cells were first treated with ZnCl2 and ionophore candidates followed by DA-ZP1 treatment and fluorescence measurement.
# Applicants experimentally determined the ionophore activity of these silyl-based compounds using the aforementioned DAZ-P1 assay in U2OS cells.
# Applicants also determined metal-ion interference of the silyl-based ionophores with focused efforts on 8. Applicants designed a competition assay wherein Applicants pre-treated equimolar amounts of various metal ions, Mg^II, Ca^II, Mn^II, Fe^II, and Na^I, with 10 μM of Zn^II for 1 hour before treatment with DA-ZP1.
# Finally, Applicants compared the activity of the designed compounds against known ionophores (FIGS. 2 and 11). […] [16]
# In a 96-well plate, 20,000 U2OS cells were plated per well and cultured for 24 h in the incubator set to 37° C. with 5% CO2. […] The medium containing the compound was removed, and the cells were washed with 3×100 μL of fresh medium, and finally another 100 μL of 2 μM of DA-ZP1 was added to the corresponding cell culture medium containing HCS NuclearMask Blue Stain. The cells were again kept for 1 h in the incubator. The medium containing compound was removed, and the cells were washed with 1×100 μL of PBS and 2×100 μL of fresh medium, and finally, another 100 μL of fresh, dye-free medium was added. The cells were immediately imaged using a high-content fluorescence microscope (Operetta Phenix) in both the DAPI and FITC channels at 20× magnification. Images were analyzed using the Harmony software, and data were plotted using GraphPad Prism 9.
# [4] = system: Staphylococcus epidermidis; test: MIC, broth microdilution; type: cell-based
# Text: (§1) Next, Applicants evaluated the antibacterial activities of the ionophores. First, Applicants determined their minimum inhibitory concentration (MIC) in the gram-positive bacterium that causes hospital-acquired infections, Staphylococcus epidermidis.
# (§2) Applicants reasoned that limiting extracellular zinc with EDTA would abolish ionophore activity by depleting the available metal ions for membrane transport. […] [24]
# (§3) Staphylococcus epidermidis ATCC® 12228™, Staphylococcus caprae ATCC® 51549™, Bacillus subtilis ATCC® 6051™, and Bacillus cereus ATCC® 14579™ were grown in cation-adjusted Mueller-Hinton broth (CA-MHB) (catalog no. 90922, Sigma) as per the Clinical and Laboratory Standards Institute guidelines.2 Bacteria were routinely grown at 37° C. under aerobic conditions.
# (§4) The MIC assay was performed according to the Clinical and Laboratory Standards Institute protocols.^3 The antibacterial activities of the compounds were measured using the broth microdilution method. Serial dilutions of compounds were prepared in cation-adjusted Müller Hinton Broth. Each dilution (100 μL) was dispensed to each well of a round-bottom plate to obtain final concentrations ranging from 0.07815-40 μM. Bacteria were grown at 37° C. overnight on cation-adjusted Müller Hinton Broth. The bacterial solution was prepared in 0.9% saline and adjusted to obtain an OD600=0.1 using a SpectraMax M5 (Molecular Devices). The resultant suspension was diluted 1:20 with cation-adjusted Müller Hinton Broth. The resulting mixture (10 μL) was added to each well of the plates (approximately 5×10^4 CFU/well), mixed, and incubated at 37° C. for 24 h. The MIC value was determined as the minimum concentration that inhibited the growth of bacteria.
# bacteria vs U2OS cells = test: Antibacterial selectivity (average molar MIC in bacteria vs EC50 in U2OS cells); type: cell-based
# Bacillus cereus = test: MIC, broth microdilution; type: cell-based; details: read-out: Strain MIC B. cereus
# Protocol: as §1, §3, §4
# Bacillus subtilis = test: MIC, broth microdilution; type: cell-based; details: read-out: Strain MIC B. subtilis
# Protocol: as §1, §3, §4
# Staphylococcus caprae = test: MIC, broth microdilution; type: cell-based; details: read-out: Strain MIC S. caprae
# Protocol: as §1, §3, §4
# [5] = system: S. epidermidis, S. caprae, B. subtilis, B. cereus; test: Average MIC over the four gram-positive strains; type: cell-based
# Protocol: as §1, §4
# U2OS cells [6] = test: U2OS cell viability assay (CellTiter-Glo); type: cell-based; details: Homo sapiens, 48 h, read-out: U2OS EC50 + 5 μM Zn^II
# Protocol: as §2
# U2OS cells were seeded in black 384-well plates at a density of 3,000 cells per well in 25 μL of medium per well. After seeding, the cells were left to adhere overnight. The compounds to be tested were added to the designated culture plates in 25 μL of medium in triplicate with a normalized DMSO concentration (0.05%) in all treatments, and the plates were placed at 37° C. in a humidified atmosphere containing 5% CO2. After 48 h, 40 μl of CellTiter-Glo (Promega) was added to each well and incubated for 30 min, after which the plate luminescence was analyzed in a PerkinElmer EnVision Manager 1.13 (PerkinElmer). The average growth of treated cells was calculated by correcting the values for background luminescence and was subsequently normalized to the average of the two lowest treatments of the compound in question. Data were plotted and fitted to a dose-response curve using GraphPad Prism 9.
# [7] = value quoted for comparison; cited from earlier work
smiles,measurement,setting,value
"Oc1ccccc1CN(Cc1ccccn1)Cc1ccccn1 [Compound 1, 2-((bis(pyridin-2-ylmethyl)amino)methyl)phenol]",logK (Zn^II binding),[1],12.5
same,intracellular Zn^II level relative to DMSO,U2OS cells [2],similar
"CC(C)(C)c1cccc(CN(Cc2ccccn2)Cc2ccccn2)c1O [Compound 4, 2-((bis(pyridin-2-ylmethyl)amino)methyl)-6-(tert-butyl)phenol]","ionophore activity (Zn^II transport, DA-ZP1 fluorescence)",U2OS cells [3],efficiently transported Zn^II
same,MIC,[4]; read-out: MIC,7.2 µg/mL
"CC(C)(C)c1ccc(O)c(CN(Cc2ccccn2)Cc2ccccn2)c1 [Compound 5, 2-((bis(pyridin-2-ylmethyl)amino)methyl)-4-(tert-butyl)phenol]","ionophore activity (Zn^II transport, DA-ZP1 fluorescence)",U2OS cells [3],poor ionophore activity; also recorded: no ionophore activity
same,antibacterial activity,[4]; control compound,no ionophore activity in U2OS cells or antibacterial activity
"C[Si](C)(C)c1cccc(CN(Cc2ccccn2)Cc2ccccn2)c1O [Compound 6, 2-((bis(pyridin-2-ylmethyl)amino)methyl)-6-(trimethylsilyl)phenol]",ionophore activity (DA-ZP1 fluorescence),U2OS cells [3],elicited detectable fluorescence
same,MIC,[4]; read-out: MIC,~7.5 µg/mL
"CC[Si](CC)(CC)c1cccc(CN(Cc2ccccn2)Cc2ccccn2)c1O [Compound 7, 2-((bis(pyridin-2-ylmethyl)amino)methyl)-6-(triethylsilyl)phenol]",MIC,[4]; read-out: MIC,~8.4 µg/mL
"CC(C)(C)[Si](c1ccccc1)(c1ccccc1)c1cccc(CN(Cc2ccccn2)Cc2ccccn2)c1O [Compound 10, 2-((bis(pyridin-2-ylmethyl)amino)methyl)-6-(tert-butyldiphenylsilyl)phenol]",ionophore activity (DA-ZP1 fluorescence),U2OS cells [3],decreased the activity
same,MIC,[4]; read-out: MIC,~5.4 µg/mL
"[O-][n+]1ccccc1S [Pyrithione, pyrithione, reference compound]",antibacterial selectivity,bacteria vs U2OS cells,0.11 times
same,selective toxicity to bacterial cells over mammalian cells,bacteria vs U2OS cells,0.1 fold
same,antibacterial selectivity,"bacteria vs U2OS cells; ratio of average molar MIC and U2OS EC50, Table 4",0.11
same,concentration at which ionophore activity is displayed,U2OS cells [3],5 µM
same,MIC,Bacillus cereus,1.3 µg/mL
same,MIC,Bacillus subtilis,1.3 µg/mL
same,MIC,Staphylococcus caprae,0.6 µg/mL
same,MIC,[4],1.3 µg/mL
same,MIC,[4]; read-out: Strain MIC S. epidermidis,1.3 µg/mL
same,MIC,[5]; read-out: Average MIC,1.1 µg/mL
same,MIC,"[5]; read-out: Average MIC (molar, in brackets)",8.7 µM
same,MIC,[5]; read-out: average MIC,1.1 µg/mL
same,CC50,U2OS cells [6],990 nM
"c1ccc(CN(CCN(Cc2ccccn2)Cc2ccccn2)Cc2ccccn2)nc1 [TPEN, reference compound]",logK (Zn^II binding) of known chelator/ionophore,[7],15.5
"CNc1ccc2oc(C[C@H]3O[C@@]4(CC[C@H]3C)O[C@H]([C@H](C)C(=O)c3ccc[nH]3)[C@H](C)C[C@H]4C)nc2c1C(=O)O [calcimycin, reference compound]",MIC,[4],~0.16 µg/mL
"C[C@H](CCC(=O)O)C[C@H](C)C[C@H](C)C(=O)/C=C(\O)[C@H](C)C[C@H](C)C/C=C/[C@@H](C)[C@@H](O)[C@@H](C)[C@@H](O)C[C@@H]1CC[C@@](C)([C@H]2CC[C@@](C)([C@@H](C)O)O2)O1 [ionomycin, reference compound]",MIC,[4],15 µg/mL
"CC[C@@H](C(=O)O)[C@@H]1O[C@@H]([C@@H](C)[C@H](O)[C@H](C)C(=O)[C@H](CC)[C@H]2O[C@]3(C=C[C@@H](O)[C@]4(CC[C@@](C)([C@H]5CC[C@](O)(CC)[C@H](C)O5)O4)O3)[C@H](C)C[C@@H]2C)[C@@H](C)C[C@@H]1C [narasin, reference compound]",MIC,[4]; read-out: MIC,0.96 µg/mL
"CC(C)(C)n1ccn([BH-](n2ccn(C(C)(C)C)c2=S)n2ccn(C(C)(C)C)c2=S)c1=S.[K+] [potassium hydrotris(N-tert-butyl-2-thioimidazolyl) borate, reference compound]",concentration at which ionophore activity is displayed,U2OS cells [3],5 µM
"CC[C@@H](C(=O)[C@@H](C)[C@@H](O)[C@H](C)[C@@H]1O[C@@H]([C@@H](CC)C(=O)O)CC[C@@H]1C)[C@H]1O[C@]2(C=C[C@@H](O)[C@]3(CC[C@@](C)([C@H]4CC[C@](O)(CC)[C@H](C)O4)O3)O2)[C@H](C)C[C@@H]1C [salinomycin, reference compound]",MIC,[4],1.88 µg/mL
